What all share (test): relative viability (nuclei count vs DMSO), 5 days (fraction); higher = more cells survive
Compound in assay [1]: CN1CCC(CC1)OC2=CC(=C(C=C2)NC3=NC=C4C(=N3)N(C(=O)N4C)C5CCCC5)OC [AZ3146] + CS(=O)(=O)CCNCc1ccc(-c2ccc3ncnc(Nc4ccc(OCc5cccc(F)c5)c(Cl)c4)c3c2)o1 [Lapatinib] (partner 2 µM)
The procedure, abridged: (§1)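 Lung cancer cell lines were seeded in 1536-well plates and dosed by pin tool the next day, with either a single drug or a fixed anchor-drug dose combined with five library-drug doses (not always all listed) spaced in √10 steps. Five days later, one step fixed the cells and stained their nuclei (final 0.05% Triton X-100, 1% formaldehyde, 1 ug/ml Hoechst), and nuclei were counted on 4× images. Relative viability is the nuclei count in treated wells divided by the count in vehicle wells, and each value is the median of duplicate plates.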

Compound in assay [2]: CN1CCC(CC1)OC2=CC(=C(C=C2)NC3=NC=C4C(=N3)N(C(=O)N4C)C5CCCC5)OC [AZ3146] + Cc1nc(NC(=O)N2CCC[C@H]2C(N)=O)sc1-c1ccnc(C(C)(C)C(F)(F)F)c1 [Alpelisib] (partner 2 µM)
The procedure, abridged:
as §1

Compound in assay [3]: CCOC(=O)CCNc1cc(N2CCc3ccccc3CC2)nc(-c2ccccn2)n1 [GSK-J4] + Nc1ncn([C@H]2C[C@H](O)[C@@H](CO)O2)c(=O)n1 [Decitabine] (partner 2 µM)
The method, boiled down:
as §1

Compound in assay [4]: CCOC(=O)CCNc1cc(N2CCc3ccccc3CC2)nc(-c2ccccn2)n1 [GSK-J4] + O=C(CCCCCCC(=O)Nc1ccccc1)NO [Vorinostat] (partner 1 µM)
The method, boiled down: as §1

Regarding NCI-H2347, the relative viability in assay [1] (first compound 0.08 µM) is 0.853; in assay [1] (first compound 0.253 µM), 0.832; in assay [1] (first compound 0.8 µM) it was 0.939; in assay [1] (first compound 2.53 µM), 1.04; in assay [1] (first compound 8 µM), 1.03; in assay [2] (first compound 0.08 µM), 0.944. Besides, the relative viability in assay [2] (first compound 0.253 µM) was 1.01; in assay [2] (first compound 0.8 µM), 0.708; in assay [2] (first compound 2.53 µM) it was 1.1; in assay [2] (first compound 8 µM) it was 1.04; in assay [3] (first compound 0.5 µM) it was 0.584; in assay [3] (first compound 1.581 µM) it was 0.606. The relative viability in assay [3] (first compound 5 µM) worked out at 0.57; in assay [3] (first compound 15.81 µM), 0.58; in assay [3] (first compound 50 µM) it was 0.503; in assay [4] (first compound 0.5 µM) it was 0.605; in assay [4] (first compound 1.581 µM), 0.558; in assay [4] (first compound 5 µM) it was 0.586. Further, the results for the relative viability in assay [4] (first compound 15.81 µM) and in assay [4] (first compound 50 µM) were 0.518 and 0.538, respectively.
Take NCI-H2405: the relative viability in assay [1] (first compound 0.08 µM) is 1.11; in assay [1] (first compound 0.8 µM), 0.967; in assay [1] (first compound 2.53 µM), 1.31; in assay [1] (first compound 8 µM), 1.29; in assay [2] (first compound 0.08 µM), 0.891; in assay [2] (first compound 0.8 µM), 0.789. Further, the relative viability in assay [2] (first compound 2.53 µM) is 0.829; in assay [2] (first compound 8 µM), 0.76; in assay [3] (first compound 0.5 µM), 0.719; in assay [3] (first compound 1.581 µM) it was 0.781; in assay [3] (first compound 15.81 µM) it was 0.689; in assay [3] (first compound 50 µM), 0.757. Further, the relative viability turned out to be 0.973 in assay [4] (first compound 0.5 µM), 0.925 in assay [4] (first compound 1.581 µM), 0.923 in assay [4] (first compound 15.81 µM) and 0.974 in assay [4] (first compound 50 µM).
Turning to NCI-H3122, the relative viability in assay [1] (first compound 0.08 µM) amounted to 1.09; in assay [1] (first compound 0.253 µM) it was 1.04; in assay [1] (first compound 0.8 µM) it was 0.952; in assay [1] (first compound 2.53 µM), 1; in assay [1] (first compound 8 µM) it was 1.02; in assay [2] (first compound 0.08 µM) it was 0.68. The relative viability in assay [2] (first compound 0.253 µM) stood at 0.683; in assay [2] (first compound 0.8 µM), 0.702; in assay [2] (first compound 2.53 µM), 0.872; in assay [2] (first compound 8 µM) it was 0.775; in assay [3] (first compound 0.5 µM), 0.476; in assay [3] (first compound 1.581 µM), 0.459. Also, the relative viability was determined as 0.454 in assay [3] (first compound 5 µM); 0.345 in assay [3] (first compound 15.81 µM); 0.415 in assay [3] (first compound 50 µM); 0.984 in assay [4] (first compound 0.5 µM); 0.876 in assay [4] (first compound 1.581 µM); 0.966 in assay [4] (first compound 5 µM). Besides, the relative viability is 0.905 in assay [4] (first compound 15.81 µM) and 0.986 in assay [4] (first compound 50 µM).
For the cell line PC-3 [JPC-3], the relative viability in assay [1] (first compound 0.08 µM) turned out to be 0.368; in assay [1] (first compound 0.253 µM), 0.459; in assay [1] (first compound 0.8 µM), 0.419; in assay [1] (first compound 2.53 µM) it was 0.47; in assay [1] (first compound 8 µM), 0.444; in assay [2] (first compound 0.08 µM) it was 0.914. Further, the relative viability in assay [2] (first compound 0.253 µM) came out at 1.01; in assay [2] (first compound 0.8 µM), 1.02; in assay [2] (first compound 2.53 µM) it was 1.08; in assay [2] (first compound 8 µM), 1.07; in assay [3] (first compound 0.5 µM), 0.883; in assay [3] (first compound 1.581 µM) it was 0.735. The relative viability amounted to 0.801 in assay [3] (first compound 5 µM); 0.876 in assay [3] (first compound 15.81 µM); 0.781 in assay [3] (first compound 50 µM); 1.05 in assay [4] (first compound 0.5 µM); 0.723 in assay [4] (first compound 1.581 µM); 0.671 in assay [4] (first compound 5 µM). In addition, the figures for the relative viability in assay [4] (first compound 15.81 µM) and in assay [4] (first compound 50 µM) were 0.624 and 0.725, respectively.
As to PC-14, the relative viability in assay [1] (first compound 0.08 µM) amounted to 0.285; in assay [1] (first compound 0.253 µM), 0.351; in assay [1] (first compound 0.8 µM), 0.279; in assay [1] (first compound 2.53 µM) it was 0.382; in assay [1] (first compound 8 µM) it was 0.315; in assay [2] (first compound 0.08 µM), 0.897. The relative viability came out at 0.976 in assay [2] (first compound 0.253 µM); 0.979 in assay [2] (first compound 0.8 µM); 1.07 in assay [2] (first compound 2.53 µM); 0.916 in assay [2] (first compound 8 µM); 0.231 in assay [3] (first compound 0.5 µM); 0.218 in assay [3] (first compound 1.581 µM). For the same cell line, the relative viability was 0.259 in assay [3] (first compound 5 µM); 0.232 in assay [3] (first compound 15.81 µM); 0.268 in assay [3] (first compound 50 µM); 0.721 in assay [4] (first compound 0.5 µM); 0.66 in assay [4] (first compound 1.581 µM); 0.565 in assay [4] (first compound 5 µM). The results for the relative viability in assay [4] (first compound 15.81 µM) and in assay [4] (first compound 50 µM) were 0.63 and 0.509, respectively.

Values taken from the supplement of paper PMC10307832.
